Columns and labels:
HL-60 = experiment: Antiproliferative activity against human HL-60 cells incubated for 72 hrs by CCK8 assay; type: functional, cell-based; details: HL-60, 72 h
[1] = molecular target: Cyclin-dependent kinase 9 (Homo sapiens, UniProt P50750); experiment: Inhibition of CDK9 (unknown origin) preincubated for 20 mins followed by [gamma-33P]ATP addition measured after 120 mins in presence of ATP by Hot-SpotSM kinase assay
Kasumi 1 [2] = experiment: Antiproliferative activity against human Kasumi 1 cells incubated for 72 hrs by CCK8 assay; type: functional, cell-based; details: Kasumi 1, 72 h
U-937 = experiment: Antiproliferative activity against human U-937 cells incubated for 72 hrs by CCK8 assay; type: functional, cell-based; details: U-937, 72 h
[3] = Antiproliferative activity against human SKNO-1 cells incubated for 72 hrs by CCK8 assay; type: functional, cell-based; details: SKNO-1, 72 h
Histone deacetylase = experiment: Inhibition of HDAC in human nuclear extract using Ac-Arg-Gly-Lys(Ac)-AMC as substrate incubated overnight by fluorescence based assay; type: subcellular, Nucleus; details: hela
[4] = molecular target: CDK6/cyclin D3 (Homo sapiens) (UniProt P30281+Q00534); experiment: Inhibition of CDK6/cyclinD3 (unknown origin) at 100 nM preincubated for 20 mins followed by [gamma-33P]ATP addition measured after 120 mins in presence of ATP by Hot-SpotSM kinase assay relative to control; type: protein-complex assay; details: time 140.0 min
[5] = molecular target: Cyclin-dependent kinase 13/Cyclin-K (Homo sapiens) (UniProt Q14004+O75909); experiment: Inhibition of CDK13/cyclinK (unknown origin) at 100 nM preincubated for 20 mins followed by [gamma-33P]ATP addition measured after 120 mins in presence of ATP by Hot-SpotSM kinase assay relative to control; type: protein-complex assay; details: time 140.0 min
[6] = molecular target: CDK3/Cyclin E (Homo sapiens) (UniProt P24864+Q00526); experiment: Inhibition of CDK3/cyclinE1 (unknown origin) at 100 nM preincubated for 20 mins followed by [gamma-33P]ATP addition measured after 120 mins in presence of ATP by Hot-SpotSM kinase assay relative to control; type: protein-complex assay; details: time 140.0 min
[7] = molecular target: Cyclin-dependent kinase 1/cyclin B1 (Homo sapiens) (UniProt P06493+P14635); experiment: Inhibition of CDK1/cyclinB1 (unknown origin) at 100 nM preincubated for 20 mins followed by [gamma-33P]ATP addition measured after 120 mins in presence of ATP by Hot-SpotSM kinase assay relative to control; type: protein-complex assay; details: time 140.0 min
[8] = molecular target: CDK12/Cyclin K (Homo sapiens) (UniProt O75909+Q9NYV4); experiment: Inhibition of CDK12/cyclinK (unknown origin) at 100 nM preincubated for 20 mins followed by [gamma-33P]ATP addition measured after 120 mins in presence of ATP by Hot-SpotSM kinase assay relative to control; type: protein-complex assay; details: time 140.0 min
Kasumi 1 [9] = experiment: Synergistic antiproliferative activity against human Kasumi 1 cells assessed as combination index incubated for 72 hrs in presence of Chidamide by CCK-8 assay; type: functional
[10] = molecular target: CDK6/cyclin D1 (Homo sapiens) (UniProt P24385+Q00534); experiment: Inhibition of CDK6/cyclinD1 (unknown origin) at 100 nM preincubated for 20 mins followed by [gamma-33P]ATP addition measured after 120 mins in presence of ATP by Hot-SpotSM kinase assay relative to control; type: protein-complex assay; details: time 140.0 min
[11] = molecular target: CDK1/Cyclin E (Homo sapiens) (UniProt P06493+P24864); experiment: Inhibition of CDK1/cyclinE1 (unknown origin) at 100 nM preincubated for 20 mins followed by [gamma-33P]ATP addition measured after 120 mins in presence of ATP by Hot-SpotSM kinase assay relative to control; type: protein-complex assay; details: time 140.0 min
[12] = molecular target: Cyclin-dependent kinase 4/cyclin D1 (Homo sapiens) (UniProt P11802+P24385); experiment: Inhibition of CDK4/cyclinD1 (unknown origin) at 100 nM preincubated for 20 mins followed by [gamma-33P]ATP addition measured after 120 mins in presence of ATP by Hot-SpotSM kinase assay relative to control; type: protein-complex assay; details: time 140.0 min
[13] = molecular target: Cyclin-C/Cyclin-dependent kinase 19 (Homo sapiens) (UniProt Q9BWU1+P24863); experiment: Inhibition of CDK19/cyclinC (unknown origin) at 100 nM preincubated for 20 mins followed by [gamma-33P]ATP addition measured after 120 mins in presence of ATP by Hot-SpotSM kinase assay relative to control; type: protein-complex assay; details: time 140.0 min
[14] = molecular target: CDK1/Cyclin A (Homo sapiens) (UniProt P06493+P20248); experiment: Inhibition of CDK1/cyclinA2 (unknown origin) at 100 nM preincubated for 20 mins followed by [gamma-33P]ATP addition measured after 120 mins in presence of ATP by Hot-SpotSM kinase assay relative to control; type: protein-complex assay; details: time 140.0 min
[15] = molecular target: CDK4/Cyclin D3 (Homo sapiens) (UniProt P11802+P30281); experiment: Inhibition of CDK4/cyclinD3 (unknown origin) at 100 nM preincubated for 20 mins followed by [gamma-33P]ATP addition measured after 120 mins in presence of ATP by Hot-SpotSM kinase assay relative to control; type: protein-complex assay; details: time 140.0 min
[16] = molecular target: T1, Cyclin-dependent kinase 5/CDK5 activator 1 (Homo sapiens) (UniProt Q00535+Q15078); experiment: Inhibition of CDK5/p25NCK (unknown origin) at 100 nM preincubated for 20 mins followed by [gamma-33P]ATP addition measured after 120 mins in presence of ATP by Hot-SpotSM kinase assay relative to control; type: protein-complex assay; details: time 140.0 min
[17] = molecular target: T1, Cyclin-dependent kinase 5/CDK5 activator 1 (Homo sapiens); experiment: Inhibition of CDK5/p35NCK (unknown origin) at 100 nM preincubated for 20 mins followed by [gamma-33P]ATP addition measured after 120 mins in presence of ATP by Hot-SpotSM kinase assay relative to control; type: protein-complex assay; details: time 140.0 min

Cyclin-dependent kinase 9, sequence (P50750 whole entry): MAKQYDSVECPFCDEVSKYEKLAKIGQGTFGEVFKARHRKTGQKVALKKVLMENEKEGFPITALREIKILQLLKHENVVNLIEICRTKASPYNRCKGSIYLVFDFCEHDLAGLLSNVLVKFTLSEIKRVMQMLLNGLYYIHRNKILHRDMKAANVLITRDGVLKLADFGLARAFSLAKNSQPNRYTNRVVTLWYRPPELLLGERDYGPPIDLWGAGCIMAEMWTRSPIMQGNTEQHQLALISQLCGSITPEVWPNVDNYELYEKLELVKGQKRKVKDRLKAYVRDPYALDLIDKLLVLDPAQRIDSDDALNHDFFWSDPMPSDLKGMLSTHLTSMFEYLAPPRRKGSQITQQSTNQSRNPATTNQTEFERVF
T1 sequence (Q00535 whole entry): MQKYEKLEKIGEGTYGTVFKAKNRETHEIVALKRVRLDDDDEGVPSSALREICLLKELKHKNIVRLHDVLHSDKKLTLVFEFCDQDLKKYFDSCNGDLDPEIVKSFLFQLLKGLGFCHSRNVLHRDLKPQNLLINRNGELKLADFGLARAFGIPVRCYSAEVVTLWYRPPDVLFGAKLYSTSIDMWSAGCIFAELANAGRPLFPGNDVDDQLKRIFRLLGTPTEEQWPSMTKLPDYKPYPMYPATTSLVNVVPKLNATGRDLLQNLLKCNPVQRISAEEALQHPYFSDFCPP
T1 sequence (Q15078 99-307 partner limits assumed): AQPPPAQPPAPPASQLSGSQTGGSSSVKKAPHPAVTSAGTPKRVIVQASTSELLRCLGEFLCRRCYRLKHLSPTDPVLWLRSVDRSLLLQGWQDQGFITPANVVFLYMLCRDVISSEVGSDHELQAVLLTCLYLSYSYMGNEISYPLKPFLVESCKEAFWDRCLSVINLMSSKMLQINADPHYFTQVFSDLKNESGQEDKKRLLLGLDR
CDK1/Cyclin A (Homo sapiens), sequence (P06493 whole entry, looked up): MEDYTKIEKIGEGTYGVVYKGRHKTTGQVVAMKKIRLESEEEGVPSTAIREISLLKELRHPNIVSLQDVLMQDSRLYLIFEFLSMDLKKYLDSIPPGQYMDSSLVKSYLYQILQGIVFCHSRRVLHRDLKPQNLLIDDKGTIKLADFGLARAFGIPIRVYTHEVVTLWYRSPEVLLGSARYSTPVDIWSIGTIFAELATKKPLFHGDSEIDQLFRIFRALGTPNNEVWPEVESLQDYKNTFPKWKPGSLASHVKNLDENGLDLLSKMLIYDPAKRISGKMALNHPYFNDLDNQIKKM
CDK1/Cyclin A (Homo sapiens), sequence (P20248 whole entry, looked up): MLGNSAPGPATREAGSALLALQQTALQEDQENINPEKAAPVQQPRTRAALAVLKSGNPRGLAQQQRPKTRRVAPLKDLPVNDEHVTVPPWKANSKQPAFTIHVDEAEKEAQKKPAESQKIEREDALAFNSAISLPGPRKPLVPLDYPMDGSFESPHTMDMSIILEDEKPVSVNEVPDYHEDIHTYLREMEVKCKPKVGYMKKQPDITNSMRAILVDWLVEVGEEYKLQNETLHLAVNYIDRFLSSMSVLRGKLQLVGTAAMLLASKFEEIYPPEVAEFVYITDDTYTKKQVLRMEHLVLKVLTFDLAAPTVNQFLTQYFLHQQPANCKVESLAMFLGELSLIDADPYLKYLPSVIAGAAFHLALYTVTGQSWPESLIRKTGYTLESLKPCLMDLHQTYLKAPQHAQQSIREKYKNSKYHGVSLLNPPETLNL
Cyclin-dependent kinase 1/cyclin B1 (Homo sapiens), sequence (P06493 whole entry, looked up): as the sequence (P06493 whole entry, looked up) above
Cyclin-dependent kinase 1/cyclin B1 (Homo sapiens), sequence (P14635 whole entry, looked up): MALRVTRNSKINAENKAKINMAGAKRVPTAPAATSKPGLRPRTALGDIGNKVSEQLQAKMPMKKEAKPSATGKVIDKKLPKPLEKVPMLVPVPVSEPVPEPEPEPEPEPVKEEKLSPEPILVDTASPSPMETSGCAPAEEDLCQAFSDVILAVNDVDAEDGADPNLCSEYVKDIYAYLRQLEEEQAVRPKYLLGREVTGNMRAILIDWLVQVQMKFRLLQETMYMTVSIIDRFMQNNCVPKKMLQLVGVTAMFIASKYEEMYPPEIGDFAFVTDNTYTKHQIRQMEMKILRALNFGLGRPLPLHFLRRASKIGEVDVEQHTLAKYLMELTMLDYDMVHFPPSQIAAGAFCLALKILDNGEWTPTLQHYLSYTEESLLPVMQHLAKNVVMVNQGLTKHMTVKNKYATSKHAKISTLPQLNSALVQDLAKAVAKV
CDK1/Cyclin E (Homo sapiens), sequence (P06493 whole entry, looked up): as the sequence (P06493 whole entry, looked up) above
CDK1/Cyclin E (Homo sapiens), sequence (P24864 whole entry, looked up): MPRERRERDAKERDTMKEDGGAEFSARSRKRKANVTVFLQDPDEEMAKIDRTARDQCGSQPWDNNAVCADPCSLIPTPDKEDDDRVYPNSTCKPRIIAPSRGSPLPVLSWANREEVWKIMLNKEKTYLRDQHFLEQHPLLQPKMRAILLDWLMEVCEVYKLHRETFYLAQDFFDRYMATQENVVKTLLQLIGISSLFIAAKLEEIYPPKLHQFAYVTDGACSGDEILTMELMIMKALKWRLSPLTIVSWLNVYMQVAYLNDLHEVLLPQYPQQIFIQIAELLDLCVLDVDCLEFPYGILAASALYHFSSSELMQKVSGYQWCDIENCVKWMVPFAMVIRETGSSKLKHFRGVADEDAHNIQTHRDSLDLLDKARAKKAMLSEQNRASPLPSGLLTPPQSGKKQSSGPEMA
CDK3/Cyclin E (Homo sapiens), sequence (P24864 whole entry, looked up): as above
CDK3/Cyclin E (Homo sapiens), sequence (Q00526 whole entry, looked up): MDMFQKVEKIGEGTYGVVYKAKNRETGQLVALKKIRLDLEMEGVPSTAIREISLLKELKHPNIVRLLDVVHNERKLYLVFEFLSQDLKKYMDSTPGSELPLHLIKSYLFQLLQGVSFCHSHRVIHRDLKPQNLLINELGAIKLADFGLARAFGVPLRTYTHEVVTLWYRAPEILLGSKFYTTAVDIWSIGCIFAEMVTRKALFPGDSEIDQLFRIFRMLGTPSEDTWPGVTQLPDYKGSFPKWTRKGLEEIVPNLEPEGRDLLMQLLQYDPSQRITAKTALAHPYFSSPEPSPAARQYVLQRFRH

| SMILES | IC50 (HL-60) [µM] | IC50 [1] [µM] | IC50 (U-937) [µM] | IC50 (Kasumi 1 [2]) [µM] | IC50 [3] [µM] | also measured |
| --- | --- | --- | --- | --- | --- | --- |
| O=C(CCCCCCN1CCC(NC(=O)c2n[nH]cc2NC(=O)c2c(Cl)cccc2Cl)CC1)NO | 1.09 | < 0.1 | 0.47 | 6.41 | 3.09 | IC50 (Histone deacetylase): < 1 µM |
| O=C(NC1CCNCC1)c1n[nH]cc1NC(=O)c1c(Cl)cccc1Cl [AT-7519] | 2.33 |  | 1.15 | 1.48 | 1.22 | inhibition [4]: 33.2%; inhibition [5]: 87%; inhibition [6]: 26.5%; inhibition [7]: 39.3%; inhibition [8]: 85%; CI (Kasumi 1 [9]): <1; inhibition [10]: 56.8%; inhibition [11]: 31.4%; inhibition [12]: 68.7%; inhibition [13]: 6.49%; inhibition [14]: 24%; inhibition [15]: 74.6%; inhibition [16]: 76.9%; inhibition [17]: 62.5% |
| O=C(CCCN1CCC(NC(=O)c2n[nH]cc2NC(=O)c2c(Cl)cccc2Cl)CC1)NO | 1.24 | < 0.1 | 1.61 | 3.52 | 2.23 |  |
| O=C(Nc1ccccc1)c1ccc(NC(=O)c2n[nH]cc2NC(=O)c2c(Cl)cccc2Cl)cc1 | 5.84 | < 0.1 | 4.68 | 3.83 | 3.27 |  |
| O=C(CCCCCN1CCC(NC(=O)c2n[nH]cc2NC(=O)c2c(Cl)cccc2Cl)CC1)NO | 1.75 | < 0.1 | 1.84 | 6.19 | 3.02 |  |
| Cc1cc(N)c(NC(=O)c2ccc(NC(=O)c3n[nH]cc3NC(=O)c3c(Cl)cccc3Cl)cc2)cc1C | 1.02 | < 0.1 | 1.14 | 0.93 | 2.56 |  |
| Nc1cc(Br)c(Br)cc1NC(=O)c1ccc(NC(=O)c2n[nH]cc2NC(=O)c2c(Cl)cccc2Cl)cc1 | 6.86 | < 0.1 | 9.13 | 6.92 | 4.56 |  |

Now from value to compound, other results behind:

| IC50 (HL-60) [µM] | IC50 [1] [µM] | IC50 (U-937) [µM] | SMILES | IC50 (Kasumi 1 [2]) [µM] | IC50 [3] [µM] | also measured |
| --- | --- | --- | --- | --- | --- | --- |
| > 10 | < 0.1 | > 10 | O=C(CCCNC(=O)c1n[nH]cc1NC(=O)c1c(Cl)cccc1Cl)NO | > 10 | > 10 |  |
| 2.55 | < 0.1 | > 10 | O=C(CCCN1CCC(NC(=O)c2n[nH]cc2NC(=O)c2c(F)cccc2F)CC1)NO | > 10 | 6.31 |  |
| 1.01 | < 0.1 | 1.44 | O=C(CCCCCCN1CCC(NC(=O)c2n[nH]cc2NC(=O)c2c(F)cccc2F)CC1)NO | 1.96 | 1.08 |  |
| > 10 | < 0.1 | > 10 | O=C(CCCCCNC(=O)c1ccc(NC(=O)c2n[nH]cc2NC(=O)c2c(F)cccc2F)cc1)NO | > 10 | > 10 |  |
| 1.77 | < 0.1 | 7.34 | O=C(CCCCN1CCC(NC(=O)c2n[nH]cc2NC(=O)c2c(F)cccc2F)CC1)NO | 6.44 | 6.53 |  |
| 4.45 | < 0.1 | > 10 | O=C(CCN1CCC(NC(=O)c2n[nH]cc2NC(=O)c2c(F)cccc2F)CC1)NO | 4.8 | 9.28 |  |
| > 10 | < 0.1 | 6.8 | Nc1cc(Cl)c(Cl)cc1NC(=O)c1ccc(NC(=O)c2n[nH]cc2NC(=O)c2c(F)cccc2F)cc1 | 7.79 | 7.28 |  |
| > 10 | < 0.1 | > 10 | O=C(CCCCNC(=O)c1ccc(NC(=O)c2n[nH]cc2NC(=O)c2c(F)cccc2F)cc1)NO | > 10 | > 10 |  |

— ChEMBL document CHEMBL5346903, “Discovery of novel and bioavailable histone deacetylases and cyclin-dependent kinases dual inhibitor to impair the stemness of leukemia cells” (Eur J Med Chem, 2023)
